# Measured values taken from patent US20230053540A1, “TREATMENT OF LIVER INJURY” (Massachusetts Institute of Technology, priority 2019, published 2023).
# Tested on: hepatocytes
# Experiment: Seq-Well scRNA-Seq of hepatocytes after APAP overdose (signature scores, DEG vs untreated)
# Type: in vivo, mouse
smiles,measurement,setting,value
"CC(=O)Nc1ccc(O)cc1 [APAP, acetaminophen]",Ubb A48logFC,A48 vs UT,−0.2644
same,0610005C13Rik avg_logFC,A96 vs untreated (UT),0.2979
same,0610005C13Rik pct.1,A96 vs untreated (UT),0.816
same,0610007P14Rik avg_logFC,A96 vs untreated (UT),0.2519
same,0610007P14Rik pct.1,A96 vs untreated (UT),0.512
same,8430408G22Rik avg_logFC,A96 vs untreated (UT),0.2527
same,8430408G22Rik pct.1,A96 vs untreated (UT),0.559
same,Abca6 avg_logFC,A96 vs untreated (UT),0.2823
same,Abca6 pct.1,A96 vs untreated (UT),0.686
same,Abcb4 avg_logFC,A96 vs untreated (UT),0.4758
same,Abcb4 pct.1,A96 vs untreated (UT),0.878
same,Abcc3 pct.1,A96 vs untreated (UT),0.733
same,Acad11 avg_logFC,A96 vs untreated (UT),0.2578
same,Acad11 pct.1,A96 vs untreated (UT),0.711
same,Acadl avg_logFC,A96 vs untreated (UT),0.2937
same,Acadl pct.1,A96 vs untreated (UT),0.8
same,Acat1 avg_logFC,A96 vs untreated (UT),0.3485
same,Acat1 pct.1,A96 vs untreated (UT),0.917
same,Acbd5 avg_logFC,A96 vs untreated (UT),0.4341
same,Acbd5 pct.1,A96 vs untreated (UT),0.87
same,Acot1 avg_logFC,A96 vs untreated (UT),0.298
same,Acot1 pct.1,A96 vs untreated (UT),0.459
same,Acot4 avg_logFC,A96 vs untreated (UT),0.268
same,Acot4 pct.1,A96 vs untreated (UT),0.328
same,Acot12 avg_logFC,A96 vs untreated (UT),0.2957
same,Acot12 pct.1,A96 vs untreated (UT),0.65
same,Acsl1 avg_logFC,A96 vs untreated (UT),0.2915
same,Acsl1 pct.1,A96 vs untreated (UT),0.977
same,Actn4 avg_logFC,A96 vs untreated (UT),0.2609
same,Actn4 pct.1,A96 vs untreated (UT),0.6
same,Agpat6 avg_logFC,A96 vs untreated (UT),0.4098
same,Agpat6 pct.1,A96 vs untreated (UT),0.743
same,Agt avg_logFC,A96 vs untreated (UT),0.3765
same,Agt pct.1,A96 vs untreated (UT),0.912
same,Akr1c6 avg_logFC,A96 vs untreated (UT),−0.359
same,Akr1c6 pct.1,A96 vs untreated (UT),0.967
same,Akr1d1 avg_logFC,A96 vs untreated (UT),0.3787
same,Akr1d1 pct.1,A96 vs untreated (UT),0.721
same,Aldh2 avg_logFC,A96 vs untreated (UT),0.304
same,Aldh2 pct.1,A96 vs untreated (UT),0.995
same,Aldh3a2 avg_logFC,A96 vs untreated (UT),0.4933
same,Aldh3a2 pct.1,A96 vs untreated (UT),0.687
same,Aldh6a1 avg_logFC,A96 vs untreated (UT),0.2669
same,Aldh6a1 pct.1,A96 vs untreated (UT),0.829
same,Aldh9a1 avg_logFC,A96 vs untreated (UT),0.3633
same,Aldh9a1 pct.1,A96 vs untreated (UT),0.884
same,Amy1 avg_logFC,A96 vs untreated (UT),0.4212
same,Amy1 pct.1,A96 vs untreated (UT),0.831
same,Angptl3 avg_logFC,A96 vs untreated (UT),0.6936
same,Angptl3 pct.1,A96 vs untreated (UT),0.998
same,Apoc1 avg_logFC,A96 vs untreated (UT),0.5008
same,Apoc1 pct.1,A96 vs untreated (UT),1
same,Apoc2 avg_logFC,A96 vs untreated (UT),0.5187
same,Apoc2 pct.1,A96 vs untreated (UT),0.901
same,Apoc3 avg_logFC,A96 vs untreated (UT),0.3002
same,Apoe avg_logFC,A96 vs untreated (UT),0.327
same,Apoe pct.1,A96 vs untreated (UT),1
same,Apoh avg_logFC,A96 vs untreated (UT),0.3467
same,Apoh pct.1,A96 vs untreated (UT),0.998
same,Apol7a avg_logFC,A96 vs untreated (UT),0.2716
same,Apol7a pct.1,A96 vs untreated (UT),0.559
same,Aqp9 avg_logFC,A96 vs untreated (UT),0.3346
same,Aqp9 pct.1,A96 vs untreated (UT),0.801
same,Arl4a avg_logFC,A96 vs untreated (UT),0.2911
same,Arl4a pct.1,A96 vs untreated (UT),0.517
same,Asl avg_logFC,A96 vs untreated (UT),0.4141
same,Asl pct.1,A96 vs untreated (UT),0.896
same,Atf5 avg_logFC,A96 vs untreated (UT),0.2708
same,Atf5 pct.1,A96 vs untreated (UT),0.745
same,Atp5k avg_logFC,A96 vs untreated (UT),0.4068
same,Atp5k pct.1,A96 vs untreated (UT),0.837
same,Atp5h avg_logFC,A96 vs untreated (UT),0.3114
same,Atp5h pct.1,A96 vs untreated (UT),0.848
same,Atxn7l3b avg_logFC,A96 vs untreated (UT),0.2828
same,Atxn7l3b pct.1,A96 vs untreated (UT),0.654
same,BC005537 avg_logFC,A96 vs untreated (UT),0.2869
same,BC005537 pct.1,A96 vs untreated (UT),0.611
same,Baat avg_logFC,A96 vs untreated (UT),0.2625
same,Baat pct.1,A96 vs untreated (UT),0.862
same,Bche avg_logFC,A96 vs untreated (UT),0.3287
same,Bche pct.1,A96 vs untreated (UT),0.588
same,Bnip3 avg_logFC,A96 vs untreated (UT),0.3443
same,Bnip3 pct.1,A96 vs untreated (UT),0.716
same,Brap avg_logFC,A96 vs untreated (UT),0.3113
same,Brap pct.1,A96 vs untreated (UT),0.642
same,Brd2 avg_logFC,A96 vs untreated (UT),0.3104
same,Brd2 pct.1,A96 vs untreated (UT),0.601
same,Cbr1 avg_logFC,A96 vs untreated (UT),0.2829
same,Cbr1 pct.1,A96 vs untreated (UT),0.591
same,Cd36 avg_logFC,A96 vs untreated (UT),0.3312
same,Cd36 pct.1,A96 vs untreated (UT),0.299
same,Cdo1 avg_logFC,A96 vs untreated (UT),0.5679
same,Cdo1 pct.1,A96 vs untreated (UT),0.998
same,Ces1c avg_logFC,A96 vs untreated (UT),0.3583
same,Ces1c pct.1,A96 vs untreated (UT),1
same,Ces1e avg_logFC,A96 vs untreated (UT),0.2944
same,Ces1e pct.1,A96 vs untreated (UT),0.71
same,Ces3a avg_logFC,A96 vs untreated (UT),−0.2844
same,Ces3a pct.1,A96 vs untreated (UT),0.97
same,Ces3b avg_logFC,A96 vs untreated (UT),−0.3398
same,Ces3b pct.1,A96 vs untreated (UT),0.685
same,Ces1d avg_logFC,A96 vs untreated (UT),0.4277
same,Ces1d pct.1,A96 vs untreated (UT),0.977
same,Chchd10 avg_logFC,A96 vs untreated (UT),0.608
same,Chchd10 pct.1,A96 vs untreated (UT),0.994
same,Chp1 avg_logFC,A96 vs untreated (UT),0.2687
same,Chp1 pct.1,A96 vs untreated (UT),0.687
same,Cox5a avg_logFC,A96 vs untreated (UT),0.3398
same,Cox5a pct.1,A96 vs untreated (UT),0.813
same,Cox6a1 avg_logFC,A96 vs untreated (UT),0.2517
same,Cox6a1 pct.1,A96 vs untreated (UT),0.943
same,Cox8a avg_logFC,A96 vs untreated (UT),0.3089
same,Cox8a pct.1,A96 vs untreated (UT),0.737
same,Cp avg_logFC,A96 vs untreated (UT),0.2826
same,Cp pct.1,A96 vs untreated (UT),0.993
same,Cpeb4 avg_logFC,A96 vs untreated (UT),0.3418
same,Cpeb4 pct.1,A96 vs untreated (UT),0.527
same,Cpox avg_logFC,A96 vs untreated (UT),0.3326
same,Cpox pct.1,A96 vs untreated (UT),0.634
same,Cpt1a avg_logFC,A96 vs untreated (UT),0.3742
same,Cpt1a pct.1,A96 vs untreated (UT),0.837
same,Crat avg_logFC,A96 vs untreated (UT),0.2624
same,Crat pct.1,A96 vs untreated (UT),0.389
same,Creg1 avg_logFC,A96 vs untreated (UT),0.2586
same,Creg1 pct.1,A96 vs untreated (UT),0.985
same,Crot avg_logFC,A96 vs untreated (UT),0.3326
same,Crot pct.1,A96 vs untreated (UT),0.989
same,Csde1 avg_logFC,A96 vs untreated (UT),0.2567
same,Csde1 pct.1,A96 vs untreated (UT),0.742
same,Ctage5 avg_logFC,A96 vs untreated (UT),0.3217
same,Ctage5 pct.1,A96 vs untreated (UT),0.837
same,Cxcl12 avg_logFC,A96 vs untreated (UT),0.3372
same,Cxcl12 pct.1,A96 vs untreated (UT),0.635
same,Cyp4a10 avg_logFC,A96 vs untreated (UT),1.12
same,Cyp4a10 pct.1,A96 vs untreated (UT),0.974
same,Cyp4a14 avg_logFC,A96 vs untreated (UT),1.601
same,Cyp4a14 pct.1,A96 vs untreated (UT),0.975
same,D4Wsu53e avg_logFC,A96 vs untreated (UT),0.3032
same,D4Wsu53e pct.1,A96 vs untreated (UT),0.597
same,D17Wsu92e avg_logFC,A96 vs untreated (UT),0.3581
same,D17Wsu92e pct.1,A96 vs untreated (UT),0.771
same,Ddx3x avg_logFC,A96 vs untreated (UT),0.2899
same,Ddx3x pct.1,A96 vs untreated (UT),0.701
same,Decr1 avg_logFC,A96 vs untreated (UT),0.3241
same,Decr1 pct.1,A96 vs untreated (UT),0.808
same,Decr2 avg_logFC,A96 vs untreated (UT),0.3728
same,Decr2 pct.1,A96 vs untreated (UT),0.813
same,Dennd5b avg_logFC,A96 vs untreated (UT),0.2871
same,Dennd5b pct.1,A96 vs untreated (UT),0.548
same,Dhcr24 avg_logFC,A96 vs untreated (UT),0.3842
same,Dhcr24 pct.1,A96 vs untreated (UT),0.933
same,Dhdh avg_logFC,A96 vs untreated (UT),0.2837
same,Dhdh pct.1,A96 vs untreated (UT),0.734
same,Dpys avg_logFC,A96 vs untreated (UT),0.2626
same,Dpys pct.1,A96 vs untreated (UT),0.824
same,Dusp6 avg_logFC,A96 vs untreated (UT),0.3249
same,Dusp6 pct.1,A96 vs untreated (UT),0.476
same,Ei24 avg_logFC,A96 vs untreated (UT),0.2718
same,Ei24 pct.1,A96 vs untreated (UT),0.667
same,Eif4g2 avg_logFC,A96 vs untreated (UT),0.2838
same,Eif4g2 pct.1,A96 vs untreated (UT),0.812
same,Elovl5 avg_logFC,A96 vs untreated (UT),0.3232
same,Elovl5 pct.1,A96 vs untreated (UT),0.765
same,Erbb2ip avg_logFC,A96 vs untreated (UT),0.2553
same,Erbb2ip pct.1,A96 vs untreated (UT),0.561
same,Etfdh avg_logFC,A96 vs untreated (UT),0.2802
same,Etfdh pct.1,A96 vs untreated (UT),0.811
same,F5 avg_logFC,A96 vs untreated (UT),0.3557
same,Fmo1 avg_logFC,A96 vs untreated (UT),0.264
same,Fmo1 pct.1,A96 vs untreated (UT),0.606
same,Fth1 avg_logFC,A96 vs untreated (UT),0.3226
same,Fth1 pct.1,A96 vs untreated (UT),0.993
same,G0s2 avg_logFC,A96 vs untreated (UT),0.2947
same,G0s2 pct.1,A96 vs untreated (UT),0.525
same,Gabarapl1 avg_logFC,A96 vs untreated (UT),0.2984
same,Gabarapl1 pct.1,A96 vs untreated (UT),0.881
same,Gclc avg_logFC,A96 vs untreated (UT),0.2707
same,Gclc pct.1,A96 vs untreated (UT),0.839
same,Gclm avg_logFC,A96 vs untreated (UT),0.3282
same,Gclm pct.1,A96 vs untreated (UT),0.865
same,Gfra1 avg_logFC,A96 vs untreated (UT),0.2571
same,Gfra1 pct.1,A96 vs untreated (UT),0.687
same,Gm2a avg_logFC,A96 vs untreated (UT),0.3164
same,Gm2a pct.1,A96 vs untreated (UT),0.587
same,Gm13775 avg_logFC,A96 vs untreated (UT),−1.05
same,Gm13775 pct.1,A96 vs untreated (UT),0.3
same,Gpld1 avg_logFC,A96 vs untreated (UT),0.3039
same,Gpld1 pct.1,A96 vs untreated (UT),0.748
same,Grn avg_logFC,A96 vs untreated (UT),0.3731
same,Grn pct.1,A96 vs untreated (UT),0.629
same,Gsta2 avg_logFC,A96 vs untreated (UT),0.3111
same,Gsta2 pct.1,A96 vs untreated (UT),0.522
same,Gstm3 avg_logFC,A96 vs untreated (UT),−0.5668
same,Gstm3 pct.1,A96 vs untreated (UT),0.23
same,Gstt3 avg_logFC,A96 vs untreated (UT),0.3379
same,Gstt3 pct.1,A96 vs untreated (UT),0.541
same,Gyk avg_logFC,A96 vs untreated (UT),0.4334
same,Gyk pct.1,A96 vs untreated (UT),0.616
same,Hadh avg_logFC,A96 vs untreated (UT),0.2626
same,Hadh pct.1,A96 vs untreated (UT),0.774
same,Hamp2 avg_logFC,A96 vs untreated (UT),0.3052
same,Hamp2 pct.1,A96 vs untreated (UT),0.203
